Measured values reported in ChEMBL document CHEMBL1201862, “PubChem BioAssay data set” (2004).
Blank lines part the entries; values can stand above or below the molecule they belong to. Activity calls are given as the source filed them.

Tests used:
[1] = biological target: Disintegrin and metalloproteinase domain-containing protein 17 (Homo sapiens, UniProt P78536); assay: exosite inhibitors of ADAM17, dose response, biochemical (AID 743260)
[2] = inhibition of ADAM10 peptide cleavage – biochemical, FRET peptide substrate, recombinant human ADAM10, selectivity assay for ADAM17 exosite inhibitor project, dose response (AID 743259);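 further: ADAM10 enzyme cleaving a FRET peptide substrate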
[3] = Luminescence Cell-Based Dose Retest to Confirm Inhibitors of Cancer Stem Cells. [Related pubchem assays (depositor defined):AID2717, AID2721]; assay type: functional; conditions: Homo sapiens
Paired box protein Pax-8 = Paired box protein Pax-8 (Homo sapiens, UniProt Q06710); assay: PAX8 transcriptional activity inhibition in RMG-I – RMG-I cells, luciferase, cherry-pick, dose response (AID 687027); assay type: functional, cell-based;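 further: luciferase reporter driven by Pax8 target thyroperoxidase promoter measured by SteadyGlo luminescence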
Paired box protein Pax-8, sequence (Q06710 whole entry): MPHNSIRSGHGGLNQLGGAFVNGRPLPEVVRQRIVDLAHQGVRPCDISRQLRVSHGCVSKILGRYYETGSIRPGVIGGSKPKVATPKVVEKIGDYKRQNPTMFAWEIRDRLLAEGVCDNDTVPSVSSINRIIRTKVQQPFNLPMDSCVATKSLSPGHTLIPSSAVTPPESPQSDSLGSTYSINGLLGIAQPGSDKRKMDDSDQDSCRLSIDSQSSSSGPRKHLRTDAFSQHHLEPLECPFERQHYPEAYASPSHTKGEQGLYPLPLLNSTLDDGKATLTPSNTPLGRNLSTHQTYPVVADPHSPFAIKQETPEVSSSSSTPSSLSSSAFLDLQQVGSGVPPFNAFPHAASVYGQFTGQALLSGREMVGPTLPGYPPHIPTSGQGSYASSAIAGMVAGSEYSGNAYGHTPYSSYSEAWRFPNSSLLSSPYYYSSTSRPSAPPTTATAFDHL

[4] = A2780 cell killing – plate reader, dry powder samples, cytotoxicity control, dose response (AID 743046); assay type: functional, cell-based
[5] = biological target: T1, DNA repair and recombination protein RAD54-like (Homo sapiens, UniProt Q92698); assay: RAD54 Holliday junction migration blockers – biochemical, fluorescence, cherry-picked samples, dose series, confirmation (AID 651657); assay type: functional
T1 sequence (Q92698 whole entry): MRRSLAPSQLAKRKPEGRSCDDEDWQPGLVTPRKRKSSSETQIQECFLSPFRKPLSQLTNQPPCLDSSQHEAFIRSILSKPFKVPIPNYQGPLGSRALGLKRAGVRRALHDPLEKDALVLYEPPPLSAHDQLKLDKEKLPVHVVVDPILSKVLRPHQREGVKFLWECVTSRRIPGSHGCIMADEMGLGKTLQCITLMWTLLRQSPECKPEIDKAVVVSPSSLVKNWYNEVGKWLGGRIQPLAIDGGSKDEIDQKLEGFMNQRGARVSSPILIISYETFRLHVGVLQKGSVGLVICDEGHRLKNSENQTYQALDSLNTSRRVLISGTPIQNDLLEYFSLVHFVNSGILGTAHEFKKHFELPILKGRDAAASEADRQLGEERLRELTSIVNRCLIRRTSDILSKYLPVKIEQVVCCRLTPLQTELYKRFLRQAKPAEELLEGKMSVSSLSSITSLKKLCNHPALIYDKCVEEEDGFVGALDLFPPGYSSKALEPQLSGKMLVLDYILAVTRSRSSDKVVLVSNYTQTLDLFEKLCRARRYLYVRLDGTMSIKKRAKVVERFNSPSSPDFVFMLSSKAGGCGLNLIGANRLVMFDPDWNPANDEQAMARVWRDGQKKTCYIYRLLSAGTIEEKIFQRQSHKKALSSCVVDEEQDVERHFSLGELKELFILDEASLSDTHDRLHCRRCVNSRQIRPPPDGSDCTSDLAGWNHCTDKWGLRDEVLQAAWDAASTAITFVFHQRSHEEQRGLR

[6] = biological target: T2, DNA repair protein RAD52 homolog (Homo sapiens, UniProt P43351); assay type: functional, biochemical
T2 sequence (P43351 whole entry): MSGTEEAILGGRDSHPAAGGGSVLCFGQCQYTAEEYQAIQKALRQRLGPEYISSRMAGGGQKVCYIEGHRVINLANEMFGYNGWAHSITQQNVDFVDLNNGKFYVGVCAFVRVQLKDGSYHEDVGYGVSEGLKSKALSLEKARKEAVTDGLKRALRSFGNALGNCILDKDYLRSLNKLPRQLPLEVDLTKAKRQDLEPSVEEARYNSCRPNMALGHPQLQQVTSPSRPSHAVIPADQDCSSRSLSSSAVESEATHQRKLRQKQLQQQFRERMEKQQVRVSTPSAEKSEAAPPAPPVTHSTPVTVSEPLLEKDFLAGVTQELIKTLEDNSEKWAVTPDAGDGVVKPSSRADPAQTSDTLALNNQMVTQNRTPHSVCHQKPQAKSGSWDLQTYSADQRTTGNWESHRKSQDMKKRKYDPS

Fatty acid synthase [7] = biological target: T3, Fatty acid synthase (Homo sapiens, UniProt P49327); assay: inhibition of human FAS-TE enzyme activity – biochemical, endpoint fluorescence intensity, uHTS hits, dose response (AID 624327); assay type: functional;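 further: fluorescence from hydrolysis of an O-methyl fluorescein acyl ester substrate by the enzyme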
T3 sequence (P49327 whole entry): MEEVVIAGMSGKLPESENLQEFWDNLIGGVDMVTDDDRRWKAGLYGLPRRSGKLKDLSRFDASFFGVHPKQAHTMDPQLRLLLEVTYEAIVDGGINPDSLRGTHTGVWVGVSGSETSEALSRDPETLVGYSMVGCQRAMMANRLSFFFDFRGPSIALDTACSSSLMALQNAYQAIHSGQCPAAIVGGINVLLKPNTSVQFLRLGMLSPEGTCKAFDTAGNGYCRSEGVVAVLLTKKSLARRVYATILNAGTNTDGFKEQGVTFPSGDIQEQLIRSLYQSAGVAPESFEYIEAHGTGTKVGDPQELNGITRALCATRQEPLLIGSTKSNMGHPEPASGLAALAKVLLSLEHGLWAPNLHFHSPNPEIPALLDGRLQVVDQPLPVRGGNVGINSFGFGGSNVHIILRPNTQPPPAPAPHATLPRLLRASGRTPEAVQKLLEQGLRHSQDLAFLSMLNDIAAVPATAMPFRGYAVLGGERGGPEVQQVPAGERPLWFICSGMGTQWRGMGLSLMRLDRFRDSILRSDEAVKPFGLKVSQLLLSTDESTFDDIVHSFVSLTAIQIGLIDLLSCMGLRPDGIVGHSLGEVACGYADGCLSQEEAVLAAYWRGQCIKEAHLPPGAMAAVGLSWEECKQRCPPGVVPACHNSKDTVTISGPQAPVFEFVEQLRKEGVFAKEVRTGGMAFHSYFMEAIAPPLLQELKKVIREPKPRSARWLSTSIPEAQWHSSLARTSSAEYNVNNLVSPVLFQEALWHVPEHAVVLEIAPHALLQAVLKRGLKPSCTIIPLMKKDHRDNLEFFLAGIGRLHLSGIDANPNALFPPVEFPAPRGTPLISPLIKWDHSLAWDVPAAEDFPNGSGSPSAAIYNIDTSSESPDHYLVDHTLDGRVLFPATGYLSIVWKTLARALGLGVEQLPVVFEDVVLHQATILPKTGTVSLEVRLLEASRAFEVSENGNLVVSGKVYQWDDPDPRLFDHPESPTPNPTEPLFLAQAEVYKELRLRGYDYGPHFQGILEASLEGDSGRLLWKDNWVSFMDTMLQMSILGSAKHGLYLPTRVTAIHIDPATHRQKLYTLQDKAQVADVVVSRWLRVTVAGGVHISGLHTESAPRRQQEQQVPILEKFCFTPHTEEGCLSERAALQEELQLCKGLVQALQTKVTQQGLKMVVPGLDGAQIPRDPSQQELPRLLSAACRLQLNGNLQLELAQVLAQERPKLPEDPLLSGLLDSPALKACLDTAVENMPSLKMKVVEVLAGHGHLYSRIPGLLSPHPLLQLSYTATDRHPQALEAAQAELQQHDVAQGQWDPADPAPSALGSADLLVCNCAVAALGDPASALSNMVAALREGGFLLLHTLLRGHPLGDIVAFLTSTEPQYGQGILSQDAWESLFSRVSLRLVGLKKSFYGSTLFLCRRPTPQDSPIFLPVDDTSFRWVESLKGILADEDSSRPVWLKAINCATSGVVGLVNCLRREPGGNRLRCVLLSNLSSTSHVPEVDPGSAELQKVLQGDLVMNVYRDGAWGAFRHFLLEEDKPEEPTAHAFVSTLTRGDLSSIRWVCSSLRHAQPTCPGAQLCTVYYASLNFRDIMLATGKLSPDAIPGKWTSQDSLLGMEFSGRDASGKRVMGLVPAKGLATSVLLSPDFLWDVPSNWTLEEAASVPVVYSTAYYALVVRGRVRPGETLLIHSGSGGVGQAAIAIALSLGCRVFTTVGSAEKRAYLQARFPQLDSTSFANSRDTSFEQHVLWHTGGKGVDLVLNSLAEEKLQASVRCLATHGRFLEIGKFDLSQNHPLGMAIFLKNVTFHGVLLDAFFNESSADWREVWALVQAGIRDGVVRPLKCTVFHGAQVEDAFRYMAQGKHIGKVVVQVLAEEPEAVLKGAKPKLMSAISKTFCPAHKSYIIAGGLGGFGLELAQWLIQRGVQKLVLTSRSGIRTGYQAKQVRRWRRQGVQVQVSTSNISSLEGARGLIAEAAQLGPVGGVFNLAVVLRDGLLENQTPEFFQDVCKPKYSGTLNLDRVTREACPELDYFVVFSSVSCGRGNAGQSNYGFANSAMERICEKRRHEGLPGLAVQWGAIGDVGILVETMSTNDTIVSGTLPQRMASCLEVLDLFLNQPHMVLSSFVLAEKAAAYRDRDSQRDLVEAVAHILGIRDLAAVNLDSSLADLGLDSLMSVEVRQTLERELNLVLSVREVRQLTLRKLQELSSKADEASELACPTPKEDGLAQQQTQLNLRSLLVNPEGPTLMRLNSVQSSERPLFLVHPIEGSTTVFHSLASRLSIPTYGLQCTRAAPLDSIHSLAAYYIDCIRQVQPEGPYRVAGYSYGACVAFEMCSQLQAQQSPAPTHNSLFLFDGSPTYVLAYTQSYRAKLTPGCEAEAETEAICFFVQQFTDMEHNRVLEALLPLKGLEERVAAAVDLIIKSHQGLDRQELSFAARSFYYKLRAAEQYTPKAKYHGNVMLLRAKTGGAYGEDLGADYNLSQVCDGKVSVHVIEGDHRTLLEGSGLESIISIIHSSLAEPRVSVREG

Fatty acid synthase [8] = biological target: T3, Fatty acid synthase; assay: inhibition of human FAS-TE enzyme activity – biochemical, kinetic fluorescence intensity, dose response (AID 624326); assay type: functional;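 further: rate of fluorescence rise from hydrolysis of a fluorogenic O-methyl fluorescein ester substrate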
[9] = viability loss in HepG2 hepatoma cells – cell-based, ATP luminescence, cherry-pick, activator set 2, cytotoxicity control, dose response (AID 1053143); assay type: functional

Disintegrin and metalloproteinase domain-containing protein 17, sequence (P78536 whole entry, the tested form may be a part): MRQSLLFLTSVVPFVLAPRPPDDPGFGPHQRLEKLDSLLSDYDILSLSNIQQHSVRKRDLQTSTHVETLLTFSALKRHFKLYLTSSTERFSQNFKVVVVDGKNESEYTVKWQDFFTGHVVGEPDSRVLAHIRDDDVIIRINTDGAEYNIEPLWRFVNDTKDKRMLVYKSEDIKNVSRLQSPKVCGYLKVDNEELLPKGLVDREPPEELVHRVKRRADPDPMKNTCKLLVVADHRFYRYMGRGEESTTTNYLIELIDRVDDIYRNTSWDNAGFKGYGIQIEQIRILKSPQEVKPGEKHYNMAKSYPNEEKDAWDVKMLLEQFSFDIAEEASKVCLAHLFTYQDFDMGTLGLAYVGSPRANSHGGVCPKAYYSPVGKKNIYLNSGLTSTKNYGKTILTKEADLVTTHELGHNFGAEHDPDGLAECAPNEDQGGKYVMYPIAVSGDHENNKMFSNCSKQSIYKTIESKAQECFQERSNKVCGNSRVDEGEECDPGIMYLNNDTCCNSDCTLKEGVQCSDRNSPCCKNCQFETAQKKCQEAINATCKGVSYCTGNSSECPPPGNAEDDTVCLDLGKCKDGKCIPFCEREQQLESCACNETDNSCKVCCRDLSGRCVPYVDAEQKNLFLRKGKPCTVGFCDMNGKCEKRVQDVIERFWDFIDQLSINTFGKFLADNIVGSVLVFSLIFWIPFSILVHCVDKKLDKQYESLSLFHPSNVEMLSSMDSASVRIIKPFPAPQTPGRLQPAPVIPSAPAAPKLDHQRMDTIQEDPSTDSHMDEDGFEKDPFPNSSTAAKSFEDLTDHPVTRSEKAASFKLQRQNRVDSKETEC

Structure (SMILES): Cc1ccccc1-n1c(SCC(=O)N/N=C/C=C/c2ccccc2[N+](=O)[O-])nc2ccccc2c1=O
AC50 [3]: > 195 µM (inactive) | IC50 [1]: > 69.5 µM (inactive) | IC50 [2]: 4.51 µM (active)

Structure (SMILES): C[C@H](CO)N1C[C@H](C)[C@@H](CN(C)Cc2ccc(Cl)c(Cl)c2)OCCCC[C@H](C)Oc2ccc(NS(=O)(=O)c3ccccc3)cc2C1=O
AC50 (Paired box protein Pax-8): 17.5 µM (active) | AC50 [4]: < 260 nM (active)

Structure (SMILES): CN(C)c1ccc(C=Cc2ccnc3ccccc23)cc1N
AC50 [9]: 26 µM (active)

The next lines start with results.

IC50 [1]: > 69.5 µM (inactive)
Structure (SMILES): O=C(CSc1nc2ccccc2o1)NN=C/C=C/c1ccccc1
IC50 [2]: > 69.5 µM (inactive)

AC50 [5]: 28.1 µM (active) | AC50 [6]: 3.85 µM (active)
Structure (SMILES): Cc1cc(N2CCN(C)CC2)nc2ccc(NC(=S)NCCCN3CCc4ccccc4C3)cc12

IC50 (Fatty acid synthase [7]): 11.2 µM (active) | IC50 (Fatty acid synthase [8]): 9.95 µM (active)
Structure (SMILES): COc1cccc(-c2cnc3c(NC=O)cc(-c4ccc(S(C)(=O)=O)cc4)cn23)c1

IC50 (Fatty acid synthase [7]): 6.51 µM (active) | IC50 (Fatty acid synthase [8]): 9.08 µM (active)
Structure (SMILES): COCCCNC(=O)C[C@H]1C[C@H](C(=O)N2CCOCC2)[C@@]2(CCC3CCCC3)c3[nH]c4cc(-c5ccco5)ccc4c3CCN2C1=O
